From US6632978B1, “Transgenic animals for studying regulation of genes” (Novartis AG, priority 1999, dated 2003)

B1: IFNg: IFNg, known not to induce E-selectin in vitro; control cytokine (protein, UniProt P01579 24-161, looked up)
Interferon gamma: QDPYVKEAENLKKYFNAGHSDVADNGTLFLGILKNWKEESDRKIMQSQIVSFYFKLFKNFKDDQSIQKSVETIKEDMNVKFFNSNKKKRDDFEKLTNYSVTDLNVQRKAIHELIQVMAELSPAAKTGKRKRSQMLFRG

What was measured:
SEAP expression = experiment: Effect of inhibitory compounds on TNF-induced SEAP expression; type: in vivo, mouse; conditions: for inhibition of marker enzyme (SEAP) expression: SEAP-1 animals (Example 2), 1 mg/kg i.v.; for modification of SEAP expression: SEAP-2 animals
Experimental: Test 5: Effect of Inhibitory Compounds on SEAP Expression.
Clasto-lactacystine-β-lactone, a commercially available proteasome inhibitor is dissolved in DMSO (10 μl/100 μg) and further diluted with 90 μl Peg300. This mixture is further diluted 1:10 in saline and injected i.v. to animals of Example 2 at a dose of 1 mg/kg. Ten to 15 min later TNF is administered i.p. to compound-treated or untreated animals of Example 2. Blood samples are taken from the animals at baseline, 6 hours and 24 hours and SEAP levels analyzed.

[1] = test system: SEAP expression under the control of the E-selectin regulatory sequence; experiment: LPS and cytokine induction of SEAP expression in heterozygous mice; type: in vivo, mouse; conditions: either line (SEAP-1, SEAP-2)
Experimental: Test 1: LPS and Cytokine Induction of SEAP Expression in Heterozygous Mice.
Heterozygous mice of Example 1 and Example 2 are injected with LPS (Sigma, Serotype 0:111B4 Cat. L4130) at a dose of 25 μg per mouse. Murine recombinant TNFα (R&D Systems, Cat No. 410-MT) is diluted in sterile saline and administered at a dose of 500 ng/mouse. Administration is intravenously, e.g., into the tail vein, subcutaneously or intraperitoneally.
Blood for analysis is taken from a superficial vein of the mouse into heparinized glass hematocrit capillaries. The blood is centrifuged in a table-top Eppendorff centrifuge at maximal speed for 5 min to prepare plasma.
A standard curve is created with human placental alkaline phosphatase (PAP) (Sigma Cat. P-3895). A stock solution of 2 mg/ml dissolved in buffer (Tris/HCl 50 mM pH 7.4; NaCl 150 mM; BSA 1%) is stored at −80° C. in aliquots. The standard curve is diluted in mouse plasma containing Heparin. The range of the standard curve is between 0.5 and 50000 ng/mL PAP.
For the enzyme assay the Tropix Kit (Tropix, Cat. No BP300) is used.
The results are plotted in FIGS. 3 and 4. […] The maximal levels of plasma SEAP are reached at 6 hours post-stimulation in animals of Example 2, the maximum reached in animals of Example 1 is not seen until 24 hours post stimulation. SEAP-2 mice express about 1000-fold more marker enzyme than SEAourP-1 animals. […]

Row | Molecule | inhibition of marker enzyme (SEAP) expression (SEAP expression; 6 hours after TNF) | inhibition of marker enzyme (SEAP) expression (SEAP expression; 24 hours after TNF) | modification of SEAP expression (SEAP expression; 6 hours after TNF) | modification of SEAP expression (SEAP expression; 24 hours after TNF) | effect on SEAP induction [1]
1 | CC(C)[C@H](O)[C@@]12NC(=O)[C@H](C)[C@@H]1OC2=O [clasto-lactacystine-β-lactone, Clasto-lactacystine-β-lactone] | significant inhibition | no effect | does not modify | does not modify | 
2 | B1 |  |  |  |  | no effect
